Literature values, collected in US6814987B2, “Compositions and methods of use for extracts of magnoliaceae plants” (NPI, LLC., priority 2000, dated 2004).
Read-outs that look alike come from different tables or passages of the source.

Compound	duration of muscle relaxing effect (250 mg/kg)	observed effect (500 mg/kg)	observed effects (mice; 63 mg/kg intraperitoneally)	duration of effects after injection (mice; 125 mg/kg)	observed effects (mice; 125 mg/kg)	duration of muscle relaxation (mice; 250 mg/kg)	time to ataxia (mice; 250 mg/kg)	time to loss of righting reflex (mice; 250 mg/kg)
C=CCc1ccc(O)c(-c2ccc(O)c(CC=C)c2)c1 [honokiol]	3 h	loss of righting reflex	–	–	–	–	–	–
C=CCc1ccc(O)c(-c2cc(CC=C)ccc2O)c1 [magnolol]	–	–	hypomotility, ptosis, and sedation	2 h	sedation, ataxia, and prominent muscle relaxation	over 3 hr	≤ 10 min	40 min
